20 compounds from patent US11142526B2, “Spirocycle compounds and methods of making and using same” (H. Lundbeck A/S, priority 2017, dated 2021) can be followed below.

Read-outs that look alike come from different tables or passages of the source. Where only a bound is given, the exact number is not on record here.

In experiment [1] the target is T1, MAGL (Mus musculus (Mouse), UniProt O35678). The experiment can be described thus: Mouse brain proteomes from inhibitor treated mice (oral gavage, brain MAGL activity 4 h after administration). Type of experiment: in vivo. To be noted: 5 mg/kg oral gavage. The method, then: Preparation of Mouse Brain Proteomes from Inhibitor Treated Mice.
Inhibitors were administered to wild-type C57B1/6J by oral gavage in a vehicle of polyethylene glycol.

The target of experiment [2] is T1, MAGL. The experiment can be described thus: In vitro competitive activity-based protein profiling, mouse brain proteome. Type of experiment: biochemical. As to conditions: for inhibition at 1 µM: mouse.
Experiment [3] deals with MAGL (Homo sapiens (Human), UniProt Q99685). The experiment can be described thus: In vitro competitive activity-based protein profiling (gel-based, FP-Rh or HT-01 probe). Type of experiment: biochemical. The method, then: In Vitro Competitive Activity-Based Protein Profiling.
Proteomes (human prefrontal cortex or cell membrane fractions) (50 μL, 1.0 mg/mL total protein concentration) were preincubated with varying concentrations of inhibitors at 37° C. After 30 min, FP-Rh or HT-01 (1.0 μL, 50 μM in DMSO) was added and the mixture was incubated for another 30 min at room temperature. Reactions were quenched with SDS loading buffer (15 μL—4×) and run on SDS-PAGE.

Where [4] appears, read: human PC3, read-out: MAGL % Inhibition at 1 μM (human PC3).
[5] abbreviates: human PFC (prefrontal cortex), read-out: MAGL % Inhibition at 1 μM (human PFC).
[6] abbreviates: human PC3, read-out: MAGL Human PC3 (IC50).

T1 sequence (O35678 whole entry): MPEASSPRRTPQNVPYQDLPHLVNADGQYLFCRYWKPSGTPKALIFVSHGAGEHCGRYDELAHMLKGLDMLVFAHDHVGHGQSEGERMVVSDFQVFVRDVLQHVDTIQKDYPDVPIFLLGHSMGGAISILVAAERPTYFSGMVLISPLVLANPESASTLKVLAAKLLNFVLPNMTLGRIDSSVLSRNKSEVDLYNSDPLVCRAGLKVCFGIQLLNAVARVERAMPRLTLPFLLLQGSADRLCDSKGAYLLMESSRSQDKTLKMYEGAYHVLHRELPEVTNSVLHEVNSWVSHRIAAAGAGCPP
Chain of MAGL (Homo sapiens (Human), UniProt Q99685) (Q99685 whole entry): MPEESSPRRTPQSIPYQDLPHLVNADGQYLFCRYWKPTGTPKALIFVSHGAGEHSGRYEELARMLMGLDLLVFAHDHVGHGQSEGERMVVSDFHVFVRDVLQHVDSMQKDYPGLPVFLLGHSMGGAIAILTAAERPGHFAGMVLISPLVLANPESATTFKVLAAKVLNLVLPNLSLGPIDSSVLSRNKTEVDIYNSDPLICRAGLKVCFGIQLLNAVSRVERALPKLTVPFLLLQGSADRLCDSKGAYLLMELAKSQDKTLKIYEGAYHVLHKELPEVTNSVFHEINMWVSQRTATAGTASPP

In general, inhibition refers to the percentage by which the read-out fell short of the control. The term IC50 denotes the concentration needed to halve the response being measured. Regarding `CC(C)n1cc(CN2CCC3(CCN(C(=O)OC(C(F)(F)F)C(F)(F)F)CC3)C2)c(-c2ccccc2)n1` [Example 6, 1,1,1,3,3,3-Hexafluoropropan-2-yl 2-((1-isopropyl-3-phenyl-1H-pyrazol-4-yl)methyl)-2,8-diazaspiro[4.5]decane-8-carboxylate], the “MAGL % Inhibition at 5 mg/kg (Mouse)” value at MAGL [1] is “## (% inhibition is less than 75% and greater than 25%)”. In addition, on MAGL [2], the inhibition at 1 µM was above 75%. The IC50 at MAGL [2] (mouse brain) is below 100 nM.

For `CN(C(=O)c1cnc2cccnn12)C1(C)CCN(C(=O)OC(C(F)(F)F)C(F)(F)F)CC1` [Example 168, 1,1,1,3,3,3-Hexafluoropropan-2-yl 4-methyl-4-(N-methylimidazo[1,2-b]pyridazine-3-carboxamido) piperidine-1-carboxylate], the inhibition at 1 µM at MAGL [3] (setting [4]), on MAGL [3] (setting [5]) and on MAGL [2] was above 75% in each case. Also, the IC50 at MAGL [3] (setting [6]) is below 100 nM.

For `Cc1nn2cccnc2c1C(=O)N1CCCC12CCN(C(=O)OC(C(F)(F)F)C(F)(F)F)CC2` [Example 171, 1,1,1,3,3,3-Hexafluoropropan-2-yl 1-(2-methylpyrazolo[1,5-a]pyrimidine-3-carbonyl)-1,8-diazaspiro[4.5] decane-8-carboxylate], the inhibition at 1 µM at MAGL [3] (setting [4]), at MAGL [3] (setting [5]) and at MAGL [2] was above 75% each time. The concentration for half-maximal inhibition (IC50) at MAGL [3] (setting [6]) was below 100 nM.

In the case of `Cc1cc(C)n2nc(C)c(C(=O)N3CCCC34CCN(C(=O)OC(C(F)(F)F)C(F)(F)F)CC4)c2n1` [Example 172, 1,1,1,3,3,3-Hexafluoropropan-2-yl 1-(2,5,7-trimethylpyrazolo [1,5-a]pyrimidine-3-carbonyl)-1,8-diazaspiro[4.5] decane-8-carboxylate], the inhibition at 1 µM at MAGL [3] (setting [4]), at MAGL [3] (setting [5]) and at MAGL [2] was above 75% in each case. Also, the IC50 on MAGL [3] (setting [6]) was below 100 nM.

Take `O=C(O)Cn1cc(Cl)c(C(=O)N2CCCC23CCN(C(=O)OC(C(F)(F)F)C(F)(F)F)CC3)n1` [Example 173, 2-(4-Chloro-3-(8-(((1,1,1,3,3,3-hexafluoropropan-2-yl)oxy)carbonyl)-1,8-diazaspiro[4.5]decane-1-carbonyl)-1H-pyrazol-1-yl)acetic acid]: the inhibition at 1 µM at MAGL [3] (setting [5]) is above 75%; at MAGL [2], below 25%.

Take `Cn1cc(CN2CCCC23CCN(C(=O)OC(C(F)(F)F)C(F)(F)F)CC3)cn1` [Example 175, 1,1,1,3,3,3-Hexafluoropropan-2-yl 1-((1-methyl-1H-pyrazol-4-yl)methyl)-1,8-diazaspiro[4.5] decane-8-carboxylate]: the inhibition at 1 µM is above 75% at MAGL [3] (setting [4]), above 75% on MAGL [3] (setting [5]) and 25 to 75% on MAGL [2].

Regarding `CN(C(=O)C1(c2ncccn2)CC1)C1(C)CCN(C(=O)OC(C(F)(F)F)C(F)(F)F)CC1` [Example 177, 1,1,1,3,3,3-Hexafluoropropan-2-yl 4-methyl-4-(N-methyl-1-(pyrimidin-2-yl)cyclopropane-1-carboxamido) piperidine-1-carboxylate], the inhibition at 1 µM on MAGL [3] (setting [4]), at MAGL [3] (setting [5]) and on MAGL [2] was above 75% throughout.

Take `CCN(C(=O)c1cn2c(n1)CN(C1CC1)CC2)C1(C)CCN(C(=O)OC(C(F)(F)F)C(F)(F)F)CC1` [Example 178, 1,1,1,3,3,3-Hexafluoropropan-2-yl 4-(7-cyclopropyl-N-ethyl-5,6,7,8-tetrahydroimidazo [1,2-a]pyrazine-2-carboxamido)-4-methylpiperidine-1-carboxylate]: the inhibition at 1 µM on MAGL [3] (setting [4]), at MAGL [3] (setting [5]) and at MAGL [2] was above 75% in each case.

Regarding `CC1(NC(=O)c2cn3c(n2)CN(C(=O)C2(F)CC2)CC3)CCN(C(=O)OC(C(F)(F)F)C(F)(F)F)CC1` [Example 192, 1,1,1,3,3,3-Hexafluoropropan-2-yl 4-(7-(1-fluorocyclopropane-1-carbonyl)-5,6,7,8-tetrahydroimidazo[1,2-a]pyrazine-2-carboxamido)-4-methylpiperidine-1-carboxylate], the inhibition at 1 µM at MAGL [3] (setting [4]) and at MAGL [2] was above 75% in each case. Moreover, on MAGL [3] (setting [6]), the 50% inhibitory concentration (IC50) is below 100 nM.

Take `CCC(C)(C)C(=O)N1CCn2cc(C(=O)NC3(C)CCN(C(=O)OC(C(F)(F)F)C(F)(F)F)CC3)nc2C1` [Example 193, 1,1,1,3,3,3-Hexafluoropropan-2-yl 4-(7-(2,2-dimethylbutanoyl)-5,6,7,8-tetrahydroimidazo[1,2-a]pyrazine-2-carboxamido)-4-methylpiperidine-1-carboxylate]: the inhibition at 1 µM at MAGL [3] (setting [4]) and on MAGL [2] was above 75% in each case. Moreover, the half-inhibitory concentration (IC50) at MAGL [3] (setting [6]) was below 100 nM.

Take `O=C(OC(C(F)(F)F)C(F)(F)F)N1CCC2(CCCN2C(=O)Cc2ncccn2)CC1` [Example 195, 1,1,1,3,3,3-Hexafluoropropan-2-yl 1-(2-(pyrimidin-2-yl)acetyl)-1,8-diazaspiro[4.5] decane-8-carboxylate]: the inhibition at 1 µM on MAGL [3] (setting [4]) is above 75%; at MAGL [3] (setting [5]) it was above 75%; on MAGL [2], below 25%.

Turning to `O=C(OC(C(F)(F)F)C(F)(F)F)N1CCC2(CCCN2C(=O)C(F)(F)c2ncc(F)cn2)CC1` [Example 196, 1,1,1,3,3,3-Hexafluoropropan-2-yl 1-(2,2-difluoro-2-(5-fluoropyrimidin-2-yl)acetyl)-1,8-diazaspiro [4.5]decane-8-carboxylate], the inhibition at 1 µM on MAGL [3] (setting [4]), at MAGL [3] (setting [5]) and at MAGL [2] was above 75% each time.

As to `CN(C(=O)C(F)(F)c1cnccn1)C1(C)CCN(C(=O)OC(C(F)(F)F)C(F)(F)F)CC1` [Example 198, 1,1,1,3,3,3-Hexafluoropropan-2-yl 4-(2,2-difluoro-N-methyl-2-(pyrazin-2-yl)acetamido)-4-methylpiperidine-1-carboxylate], the inhibition at 1 µM on MAGL [3] (setting [4]), at MAGL [3] (setting [5]) and on MAGL [2] was above 75% throughout.

For `COc1cnc(C(F)(F)C(=O)N(C)C2(C)CCN(C(=O)OC(C(F)(F)F)C(F)(F)F)CC2)cn1` [Example 199, 1,1,1,3,3,3-Hexafluoropropan-2-yl 4-(2,2-difluoro-2-(5-methoxypyrazin-2-yl)-N-methylacetamido)-4-methylpiperidine-1-carboxylate], the inhibition at 1 µM on MAGL [3] (setting [4]), on MAGL [3] (setting [5]) and at MAGL [2] was above 75% each time. The concentration for half-maximal inhibition (IC50) on MAGL [3] (human PFC (prefrontal cortex), read-out: MAGL Human PFC (IC50)) was below 100 nM.

On to `O=C(OC(C(F)(F)F)C(F)(F)F)N1CCC2(CCCN2C(=O)C2(c3ccnc(C4CC4)n3)CC2)CC1` [Example 201, 1,1,1,3,3,3-Hexafluoropropan-2-yl 1-(1-(2-cyclopropylpyrimidin-4-yl)cyclopropane-1-carbonyl)-1,8-diazaspiro [4.5]decane-8-carboxylate], for which the inhibition at 1 µM at MAGL [3] (setting [4]), on MAGL [3] (setting [5]) and at MAGL [2] was above 75% each time. The IC50 on MAGL [3] (setting [6]) was below 100 nM.

Regarding `O=C(OC(C(F)(F)F)C(F)(F)F)N1CCC2(CCCN2C(=O)C2(c3nccc(C(F)(F)F)n3)CC2)CC1` [Example 202, 1,1,1,3,3,3-Hexafluoropropan-2-yl 1-(1-(4-(trifluoromethyl)pyrimidin-2-yl)cyclopropane-1-carbonyl)-1,8-diazaspiro [4.5]decane-8-carboxylate], the inhibition at 1 µM at MAGL [3] (setting [4]), on MAGL [3] (setting [5]) and at MAGL [2] was above 75% each time. The IC50 at MAGL [3] (setting [6]) is below 100 nM.

Consider `COc1ccnc(C2(C(=O)N3CCCC34CCN(C(=O)OC(C(F)(F)F)C(F)(F)F)CC4)CC2)n1` [Example 203, 1,1,1,3,3,3-Hexafluoropropan-2-yl 1-(1-(4-methoxypyrimidin-2-yl)cyclopropane-1-carbonyl)-1,8-diazaspiro [4.5]decane-8-carboxylate], for which the inhibition at 1 µM at MAGL [3] (setting [4]), on MAGL [3] (setting [5]) and on MAGL [2] was above 75% each time. In addition, the half-maximal inhibitory concentration (IC50) on MAGL [3] (setting [6]) was below 100 nM.

`CC1(NC(=O)c2nnc3n2CCN(C2CCC2)C3)CCN(C(=O)OC(C(F)(F)F)C(F)(F)F)CC1` [Example 205, 1,1,1,3,3,3-Hexafluoropropan-2-yl 4-(7-cyclobutyl-5,6,7,8-tetrahydro-[1,2,4]triazolo[4,3-a]pyrazine-3-carboxamido)-4-methylpiperidine-1-carboxylate]: the inhibition at 1 µM on MAGL [3] (setting [4]), at MAGL [3] (setting [5]) and on MAGL [2] was above 75% in each case. Moreover, the half-inhibitory concentration (IC50) at MAGL [3] (setting [6]) was below 100 nM.

On to `CN(C(=O)c1nnc2n1CCNC2)C1(C)CCN(C(=O)OC(C(F)(F)F)C(F)(F)F)CC1` [Example 210, 1,1,1,3,3,3-Hexafluoropropan-2-yl 4-methyl-4-(N-methyl-5,6,7,8-tetrahydro-[1,2,4]triazolo [4,3-a]pyrazine-3-carboxamido) piperidine-1-carboxylate], for which the inhibition at 1 µM at MAGL [3] (setting [4]) was 25 to 75%; on MAGL [3] (setting [5]) it was above 75%; on MAGL [2], 25 to 75%.

Regarding `COCCN(C(=O)C1(c2ncccn2)CC1)C1(C)CCN(C(=O)OC(C(F)(F)F)C(F)(F)F)CC1` [Example 212, 1,1,1,3,3,3-hexafluoropropan-2-yl 4-(N-(2-methoxyethyl)-1-(pyrimidin-2-yl)cyclopropane-1-carboxamido)-4-methylpiperidine-1-carboxylate], the inhibition at 1 µM on MAGL [3] (setting [4]), at MAGL [3] (setting [5]) and at MAGL [2] was above 75% in each case.
